A short description of data set [1]: Single-dose PK in cynomolgus monkeys (IV/PO). The class given is in vivo, cynomolgus monkey.
Another data set concerns the target T1, CYP2C9 (Homo sapiens, UniProt P11712).
T1 construct: tissue Life Technologies (Durham, NC, USA); host or cells: human liver microsomes
The experiment in a line: Reversible CYP inhibition in HLM, CYP2C9 (diclofenac). To be noted: for enzyme activity remaining: CYP2C9, HLM. The class given is in vitro ADME. How it is done: The markers used to determine the activities of CYP isoforms were phenacetin O-deethylation for CYP1A2 (probe substrate: 50 µM phenacetin), bupropion hydroxylation for CYP2B6 (probe substrate: 70 µM bupropion), paclitaxel 6α-hydroxylation for CYP2C8 (probe substrate: 10 µM paclitaxel), diclofenac 4′-hydroxylation for CYP2C9 (probe substrate: 5 µM diclofenac), S-(+)-mephenytoin 4′-hydroxylation for CYP2C19 (probe substrate: 20 µM S-(+)-mephenytoin), dextromethorphan O-demethylation for CYP2D6 (probe substrate: 6 µM dextromethorphan), chlorzoxazone 6′-hydroxylation for CYP2E1 (probe substrate: 70 µM chlorzoxazone), and testosterone 6β-hydroxylation and midazolam 1′-hydroxylation for CYP3A4/5 (probe substrate: 45 µM testosterone and 5 µM midazolam). […] Alpha-naphthoflavone (0.04 µM), 2-phenyl-2-(1-piperidinyl)propane (5 µM), quercetin (1 µM), sulfaphenazole (0.5 µM), ticlopidine (4 µM), quinidine (0.2 µM), diethyldithiocarbamate (20 µM), and ketoconazole (0.05 µM) were used as positive inhibitors of CYP1A2, 2B6, 2C8, 2C9, 2C19, 2D6, 2E1, and 3A4, respectively. The vehicle control was prepared in the same composition as inhibitor solutions but free of inhibitors. The concentrations of probe substrates were close to Km values that were determined in-house and within the range recommended by the FDA ([Huang et al., 2007]). Reaction mixtures were incubated at 37°C for 5, 20, or 30 min, depending on the probe substrates of CYP isoforms. The reactions were terminated by adding cold acetonitrile containing IS, and the terminated incubation mixtures were centrifuged at 3,000 g for 10 min before LC-MS/MS analysis.

For a further data set, the target named is T2, CYP2B6 (Homo sapiens, UniProt P20813).
T2 construct: tissue Life Technologies (Durham, NC, USA); host or cells: human liver microsomes
T2 sequence (P20813 1-491): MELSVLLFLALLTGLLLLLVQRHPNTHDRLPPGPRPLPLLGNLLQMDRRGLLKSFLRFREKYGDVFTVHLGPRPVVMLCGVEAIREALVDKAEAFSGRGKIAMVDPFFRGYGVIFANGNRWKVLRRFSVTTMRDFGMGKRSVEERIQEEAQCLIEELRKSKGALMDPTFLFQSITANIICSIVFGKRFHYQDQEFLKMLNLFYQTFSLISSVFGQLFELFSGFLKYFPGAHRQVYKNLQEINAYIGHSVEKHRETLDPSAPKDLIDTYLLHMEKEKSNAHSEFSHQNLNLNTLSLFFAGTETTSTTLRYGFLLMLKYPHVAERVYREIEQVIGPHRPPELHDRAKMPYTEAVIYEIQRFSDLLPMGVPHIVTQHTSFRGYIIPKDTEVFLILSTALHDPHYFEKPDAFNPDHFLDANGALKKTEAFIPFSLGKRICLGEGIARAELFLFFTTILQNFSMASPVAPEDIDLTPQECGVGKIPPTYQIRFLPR
The data set can be described thus: Time-dependent CYP inhibition in HLM, CYP2B6. The format is in vitro ADME. Conditions: 10 μM, 30 min pre-incubation with NADPH. As to the method:
The procedure of time-dependent CYP inhibition was similar to that used for CYP reversible inhibition, as mentioned above, except that a pre-incubation step was added. […] Another appropriate volume of the NADPH-regenerating system and probe substrate were added to initiate the CYP isoform enzyme activity test step. For this step, the incubation period was 10 min, except for CYP2B6, CYP2C8, and CYP3A4/5 (probe substrate: midazolam), which was 3 min to make sure the reaction was under initial linear rates. After incubation for the designated time periods at 37°C, the ice-cold acetonitrile containing IS was added to quench the reaction. […] (Ainactivator/[…] represents the enzyme activity remaining due to the inhibition by the diluted inactivator in the enzyme activity test step, and (Ainactivator/[…] represents the remaining enzyme activity due to pre-incubation loss plus inhibition by the diluted inactivator in the enzyme activity test step.

Setting [2] is: both sexes, cynomolgus monkey, in vivo, iv, 1 mg/kg.
Setting [3] is: both sexes, cynomolgus monkey, in vivo, po, 5 mg/kg.

Where “and” joins values, the source holds several entries; their conditions need not be identical. Identical values can stand only once. Like-named read-outs stand apart in the source and are kept apart here.

What is called AUC(0-inf) is the area under the concentration-time curve extrapolated to infinity. Low values mean low exposure, high ones high exposure. Broadly, the AUC(0-t) is the area under the concentration-time curve up to a stated or last time point. A lower AUC(0-t) goes with less exposure. A word on the MRT: it is a mean duration of stay, worked out from the concentration-time curve. For orientation: Cmax means the maximum level reached in the sampled fluid or tissue. Broadly, the Tmax is the time at which the peak concentration occurs. Broadly, the IC50 is the concentration that inhibits the measured activity by half. A low value points to greater potency.

T1 sequence (P11712 whole entry): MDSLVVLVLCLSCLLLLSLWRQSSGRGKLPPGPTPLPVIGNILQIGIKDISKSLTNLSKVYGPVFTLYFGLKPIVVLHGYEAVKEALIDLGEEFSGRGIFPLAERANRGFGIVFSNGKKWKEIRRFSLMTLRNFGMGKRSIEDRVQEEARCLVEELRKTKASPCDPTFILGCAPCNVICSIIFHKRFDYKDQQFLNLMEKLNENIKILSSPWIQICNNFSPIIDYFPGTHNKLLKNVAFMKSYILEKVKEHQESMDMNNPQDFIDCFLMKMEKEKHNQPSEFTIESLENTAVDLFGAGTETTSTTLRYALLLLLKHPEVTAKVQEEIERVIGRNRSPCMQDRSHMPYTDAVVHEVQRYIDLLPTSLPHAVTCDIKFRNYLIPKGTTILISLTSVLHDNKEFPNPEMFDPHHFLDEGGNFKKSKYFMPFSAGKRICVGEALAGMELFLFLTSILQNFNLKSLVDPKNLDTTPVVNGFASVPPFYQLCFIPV

Turning to `C[C@H](Nc1ncnc(N)c1C#N)c1cc2ncc(Cl)n2nc1-c1ccccc1` [Amdizalisib], the FPO in data set [1] (Cynomolgus monkey, fasted, PO 5 mg/kg, 5 mg/kg) is recorded as 30.8 ± 8.48%; in data set [1] (both, cynomolgus monkey, in vivo, po, 5 mg/kg) it was 30.8%. Further, the AUC(0-inf) in data set [1] (setting [2]) turned out to be 1520 ng·h/mL; in data set [1] (setting [3]), 2390 ng·h/mL. For the same compound, the AUC(0-t) in data set [1] (setting [2]) was determined as 1490 ng·h/mL; in data set [1] (setting [3]), 2330 ng·h/mL. The MRT in data set [1] (setting [2]) turned out to be 2.2 ± 0.551 h; in data set [1] (setting [3]) it was 4.9 ± 1 h. The same compound displayed a clearance in data set [1] (setting [2]) of 11.3 ± 2.36 mL/min/kg. The compound further displayed a Cmax in data set [1] (setting [3]) of 480 ± 147 ng/mL. The time to peak (Tmax) in data set [1] (setting [3]) was found to be 2 ± 0.632 h. Also, the half-life in data set [1] (setting [3]) was 3.1 ± 0.89 h; in data set [1] (both sexes, in vivo, Cynomolgus monkey, fasted, IV 1 mg/kg, read-out: t1/2 (converted)) it was 2.82 ± 0.469 h. Further, in data set [1] (both sexes, in vivo, Cynomolgus monkey, fasted, IV 1 mg/kg, read-out: Vss), the Vd turned out to be 1.45 ± 0.207 L/kg. For the same compound, the “CL as % of the hepatic blood flow” value in data set [1] (both, cynomolgus monkey, in vivo, iv) came out at 25.7%. For the same compound, the enzyme activity remaining at CYP2C9 (0.08 μM) is 98.3% and 99.7%; at CYP2C9 (0.4 μM), 94.2% and 95.6%; at CYP2C9 (2 μM) it was 82.6%; at CYP2C9 (10 μM) it was 53.7% and 52.8%; on CYP2C9 (50 μM), 17.2% and 16.0%. At CYP2C9 (HLM, reversible, without pre-incubation), half-maximal inhibition (IC50) was put at 10.7 µM. Moreover, the “activity loss of CYP2B6” value on CYP2B6 was “less than 10%”.

These data come from paper PMC11211886 (Frontiers in Pharmacology, 2024).
